Data on twelve compounds can be found in US20240158355A1, “BET SUBFAMILY INHIBITORS AND METHODS USING SAME” (Baylor College of Medicine, priority 2021, published 2024).

The conditions of data set [1]: mouse, in vivo; cited from earlier work.
The subject of data set [2] is mice. The settings on record: cited from earlier work.
Data set [3] has as its target BRD4-BD2 (Homo sapiens (Human), UniProt O60885). The settings on record: cited from earlier work.
For data set [4], the system named is BD2. The following applies: cited from earlier work.
In data set [5] the target is T1, BRDT-BD2 (Homo sapiens (Human), UniProt Q58F21). The data set is described as follows: AlphaScreen bromodomain proximity assay (competition with biotinylated (+)-JQ1), BRDT-BD2. It is filed as binding.
Data set [6] is described as follows: Metabolic stability assay in mouse liver microsomes. It is filed as in vitro ADME. The following applies: for half-life at 2 μM: 0.5 mg protein/mL, 37° C., read-out: MLM t1/2. The procedure: (§1) Compounds 3-10, 15, 17, and 20-22 (2.0 μM) were incubated in the mouse or human liver microsomes (0.5 mg protein/mL) at 37° C. […] The reaction mixtures were centrifuged at rcf 15,000 for 15 min. […] The column temperature was maintained at 40° C. […] Q Exactive MS was operated in positive or negative mode with electrospray ionization.

For data set [7], the target named is BRDT-BD1 (Homo sapiens (Human), UniProt Q58F21). The data set is described as follows: AlphaScreen bromodomain proximity assay (competition with biotinylated (+)-JQ1), BRDT-BD1. The following applies: NE: no effect at 10 μM. The format is binding.
Data set [8] has as its target His-BRDT-BD2 (Homo sapiens (Human), UniProt Q58F21). The following applies: 0 = theoretically present in the library but not detected in the sequencing data.
Data set [9] in a line: Metabolic stability assay in human liver microsomes. The format is in vitro ADME. The following applies: for half-life at 2 μM: read-out: HLM t1/2; for human microsomal stability: in words. The procedure: as §1
The subject of data set [10] is bromodomains. The settings on record: BROMOscan competition binding.
Protocol: (§2) Binding constants (Kds) were calculated with a standard dose-response curve using the Hill equation:
1+(KdHill Slope/DoseHill Slope)
The Hill Slope was set to −1.
(§3) Curves were fitted using a non-linear least square fit with the Levenberg-Marquardt algorithm.
For data set [11], the target named is T1, BRDT-BD2. The settings on record: BromoKdELECT dose-response.
Protocol: as §2
1+(KdHill Slope/DoseHill Slope)
The Hill Slope was set to −1.
as §3
Setting [12] is: data >60 min is an extrapolated estimate.
Setting [13] is: 2.0 μM, 0.5 mg protein/mL, 37° C.

A value given as a limit tells only on which side of the number the result lay.

On to `Cc1sc2c(c1C)C(c1ccc(Cl)cc1)=N[C@@H](CC(=O)OC(C)(C)C)c1nnc(C)n1-2` [(+)-JQ1, tert-butyl (S)-2-(4-(4-chlorophenyl)-2,3,9-trimethyl-6H-thieno[3,2-f][1,2,4]triazolo[4,3-a][1,4]diazepin-6-yl)acetate], for which the “bioavailable across the blood-testis boundary” value in [1] is given as 100%. The contraceptive effect result in data set [2] is “complete and reversible contraceptive effect”.

With `CCNC(=O)c1cc2c(-c3cc(C(C)(C)O)ccc3Oc3c(C)cc(F)cc3C)cn(C)c(=O)c2[nH]1` [ABBV-744], the “selectivity for BRD4-BD2” value in data set [3] is given as 95-290 fold.

In the case of `CC(=O)Nc1c(F)cc(C(=O)N[C@H]2CC[C@H](O)CC2)cc1O[C@@H](C)c1ccccc1` [GSK046], the “selectivity for BD2 over BD1” value in [4] was above 300 fold.

On to `CNC(=O)c1ccc(C(=O)Nc2cc(NC(=O)c3ccc4c(c3)c(-c3cc5ccccc5n3C)nn4C)ccc2OC)cc1` [compound 3, N^1-(2-Methoxy-5-(1-methyl-3-(1-methyl-1H-indol-2-yl)-1H-indazole-5-carboxamido)phenyl)-N^4-methylterephthalamide], for which the IC50 was 22 nM in data set [5] and above 10000 nM in [7]. Also, the half-life at 2 μM is 31 min in data set [6] and 87 min in data set [9] (setting [12]). The “Count (observed molecule count in the DEC-Tec screen against BRDT-BD2)” value (“Count” for short) in [8] is listed as 1039.

Regarding `CNC(=O)c1ccc(C(=O)Nc2cc(NC(=O)c3ccc4c(c3)c(-c3ccc(N)cc3C)nn4C)ccc2OC)cc1` [compound 4, N^1-(5-(3-(4-Amino-2-methylphenyl)-1-methyl-1H-indazole-5-carboxamido)-2-methoxyphenyl)-N^4-methylterephthalamide], the IC50 in data set [5] is 12 nM; in [7], above 10000 nM. Besides, the half-life at 2 μM in data set [6] is 14 min; in data set [9] (setting [12]), 100 min. Further, the “Count” value in [8] was 838.

On to `CNC(=O)c1ccc(C(=O)Nc2cc(NC(=O)c3ccc4c(c3)c(-c3ccc(C)cc3C)nn4C)ccc2OC)cc1` [compound 5, N^1-(5-(3-(2,4-Dimethylphenyl)-1-methyl-1H-indazole-5-carboxamido)-2-methoxyphenyl)-N^4-methylterephthalamide], for which the values for the IC50 in data set [5] and in data set [7] were 26 nM and above 10000 nM, respectively. Moreover, the half-life at 2 μM in [6] is 20 min; in data set [9] (setting [13]), 18 min. Moreover, the “Count” value in data set [8] was determined as 515.

Turning to `CNC(=O)c1ccc(C(=O)Nc2cc(NC(=O)c3ccc4c(c3)c(-c3ccccc3C)nn4C)ccc2OC)cc1` [compound 6, N^1-(2-Methoxy-5-(1-methyl-3-(o-tolyl)-1H-indazole-5-carboxamido)phenyl)-N^4-methylterephthalamide], the IC50 in data set [5] came out at 61 nM; in data set [7] it was 6300 nM. Besides, the half-life at 2 μM in data set [6] turned out to be 40 min; in [9] (setting [13]) it was 17 min. In addition, the “Count” value in data set [8] came to 0.

For the compound `CNC(=O)c1ccc(C(=O)Nc2cc(NC(=O)c3ccc4c(c3)c(-c3ccc(N)cc3)nn4C)ccc2OC)cc1` [compound 7, N^1-(5-(3-(4-Aminophenyl)-1-methyl-1H-indazole-5-carboxamido)-2-methoxyphenyl)-N^4-methylterephthalamide], the IC50 in [5] is 15 nM; in data set [7] it was above 10000 nM. Also, the half-life at 2 μM in [6] was 51 min; in data set [9] (setting [12]), 250 min. Also, the “Count” value in data set [8] was 63.

Take `CNC(=O)c1ccc(C(=O)Nc2cc(NC(=O)c3ccc4c(c3)c(-c3ccc(N)cc3C)nn4C)ccc2C)cc1` [compound 9, N^1-(5-(3-(4-Amino-2-methylphenyl)-1-methyl-1H-indazole-5-carboxamido)-2-methylphenyl)-N^4-methylterephthalamide]: in data set [9], the human microsomal stability result is reported as “high metabolic stability”.

In the case of `CNC(=O)c1ccc(C(=O)Nc2cc(NC(=O)c3ccc4c(c3)c(-c3ccc(N)nc3)nn4C)ccc2C)cc1` [compound 10, N^1-(5-(3-(6-Aminopyridin-3-yl)-1-methyl-1H-indazole-5-carboxamido)-2-methylphenyl)-N^4-methylterephthalamide], the values for the IC50 in data set [5] and in data set [7] were 17 nM and above 10000 nM, respectively. Also, in data set [6] (in words), the mouse microsomal stability entry was “high metabolic stability”. In addition, the “Count” value in data set [8] worked out at 3. The human microsomal stability entry in data set [9] is “high metabolic stability”.

With `CNC(=O)c1ccc(C(=O)Nc2cc(NC(=O)c3ccc4c(c3)c(-c3ccncc3)nn4C)ccc2C)cc1` [compound 12, N^1-Methyl-N^4-(2-methyl-5-(1-methyl-3-(pyridin-4-yl)-1H-indazole-5-carboxamido)phenyl)terephthalamide], the IC50 in data set [5] is 978 nM; in [7] it was above 10000 nM. Also, the “Count” value in data set [8] came to 0.

As for `CC(=O)Nc1cc(NC(=O)c2ccc3c(c2)c(-c2ccc(N)cc2C)nn3C)ccc1C` [compound 20, N-(3-Acetamido-4-methylphenyl)-3-(4-amino-2-methylphenyl)-1-methyl-1H-indazole-5-carboxamide], in data set [10], the “binding selectivity across bromodomains” value is “potent and selective binding to only the second bromodomains within the BET subfamily”. The “potency at binding BRDT-BD2 relative to (+)-JQ1” value in data set [11] is reported as “more than 20 fold”. Further, the IC50 in [5] was 8 nM; in data set [7] it was above 10000 nM.
